# Measurements as given in article doi:10.1101/2025.01.13.632836v7 (biorxiv, 2026).
# Biological target: hERG potassium channel (Homo sapiens, UniProt Q12809)
# Assay: fluorescence polarization, fluorescent tracer displacement
# Assay type: binding
# Chain of hERG potassium channel (Q12809 whole entry): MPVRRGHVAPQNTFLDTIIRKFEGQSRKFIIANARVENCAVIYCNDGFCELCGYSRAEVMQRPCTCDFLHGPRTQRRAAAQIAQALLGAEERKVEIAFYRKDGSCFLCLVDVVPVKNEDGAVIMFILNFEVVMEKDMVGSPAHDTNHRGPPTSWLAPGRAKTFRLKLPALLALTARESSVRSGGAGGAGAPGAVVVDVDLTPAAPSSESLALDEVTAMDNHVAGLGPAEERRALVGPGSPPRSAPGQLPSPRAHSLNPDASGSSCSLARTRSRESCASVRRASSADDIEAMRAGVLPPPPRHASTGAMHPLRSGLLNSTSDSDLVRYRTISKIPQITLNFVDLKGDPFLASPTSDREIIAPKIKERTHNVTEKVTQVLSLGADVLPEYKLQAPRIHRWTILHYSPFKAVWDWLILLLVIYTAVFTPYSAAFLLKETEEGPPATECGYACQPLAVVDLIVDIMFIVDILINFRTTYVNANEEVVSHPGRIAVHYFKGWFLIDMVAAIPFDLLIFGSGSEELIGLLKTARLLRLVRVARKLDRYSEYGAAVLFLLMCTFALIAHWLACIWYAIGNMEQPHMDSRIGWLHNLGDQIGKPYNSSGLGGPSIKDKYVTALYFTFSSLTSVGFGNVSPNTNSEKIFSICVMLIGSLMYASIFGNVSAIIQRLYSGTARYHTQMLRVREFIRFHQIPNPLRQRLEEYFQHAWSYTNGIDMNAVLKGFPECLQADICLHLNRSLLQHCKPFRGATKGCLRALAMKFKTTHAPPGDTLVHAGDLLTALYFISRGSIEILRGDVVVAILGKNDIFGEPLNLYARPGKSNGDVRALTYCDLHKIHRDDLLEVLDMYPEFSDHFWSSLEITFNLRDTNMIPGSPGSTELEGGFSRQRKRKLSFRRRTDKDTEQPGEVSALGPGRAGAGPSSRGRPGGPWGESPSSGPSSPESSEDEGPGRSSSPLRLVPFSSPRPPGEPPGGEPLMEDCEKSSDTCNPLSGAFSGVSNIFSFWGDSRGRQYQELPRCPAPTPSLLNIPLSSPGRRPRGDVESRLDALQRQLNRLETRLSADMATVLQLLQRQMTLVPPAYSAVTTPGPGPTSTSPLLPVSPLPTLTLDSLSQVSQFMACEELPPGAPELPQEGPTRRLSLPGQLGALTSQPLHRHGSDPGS
compound,measurement,value
Cc1c(-c2ccc(O)cc2)n(Cc2ccc(OCCN3CCCCC3)cc2)c2ccc(O)cc12 [MDL-001],IC50,13 µM
